# Experimental data taken from the supplement of paper PMC10307832.
# Legend:
# Assay in all cases: relative viability (nuclei count vs DMSO), 5 days (fraction); higher = more cells survive
# Salubrinal + Dasatinib = compound: O=C(/C=C/c1ccccc1)NC(NC(=S)Nc1cccc2cccnc12)C(Cl)(Cl)Cl [Salubrinal] + Cc1nc(Nc2ncc(C(=O)Nc3c(C)cccc3Cl)s2)cc(N2CCN(CCO)CC2)n1 [Dasatinib] (partner 0.075 µM)
# Procedure, shortened: (§1)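 After 5 days of treatment, lung cancer cells in 1536-well plates were fixed and stained in a single step (final 0.05% Triton X-100, 1% formaldehyde, 1 ug/ml Hoechst) and their nuclei counted on 4× images. Treatment had been applied by pin tool the day after seeding as one drug alone or as a fixed anchor-drug dose with five library-drug doses (not always all listed) in √10 steps. Relative viability is the nuclei count of treated wells divided by that of vehicle wells, and values are medians of duplicate plates.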
# Salubrinal + Luminespib = compound: O=C(/C=C/c1ccccc1)NC(NC(=S)Nc1cccc2cccnc12)C(Cl)(Cl)Cl [Salubrinal] + CCNC(=O)c1noc(-c2cc(C(C)C)c(O)cc2O)c1-c1ccc(CN2CCOCC2)cc1 [Luminespib] (partner 0.01 µM)
# Procedure, shortened: as §1
# [1] = compound: Cc1ccc2nc(NCCN)c3ncc(C)n3c2c1 + Nc1ncn([C@H]2C[C@H](O)[C@@H](CO)O2)c(=O)n1 [Decitabine] (partner 2 µM)
# Procedure, shortened: as §1
# [2] = compound: Cc1ccc2nc(NCCN)c3ncc(C)n3c2c1 + CC(C)C[C@H](NC(=O)[C@H](Cc1ccccc1)NC(=O)c1cnccn1)B(O)O [Bortezomib] (partner 0.002 µM)
# Procedure, shortened: as §1
Cell Line,relative viability (Salubrinal + Dasatinib; first compound 0.08 µM),relative viability (Salubrinal + Dasatinib; first compound 0.253 µM),relative viability (Salubrinal + Dasatinib; first compound 0.8 µM),relative viability (Salubrinal + Dasatinib; first compound 2.53 µM),relative viability (Salubrinal + Dasatinib; first compound 8 µM),relative viability (Salubrinal + Luminespib; first compound 0.08 µM),relative viability (Salubrinal + Luminespib; first compound 0.253 µM),relative viability (Salubrinal + Luminespib; first compound 0.8 µM),relative viability (Salubrinal + Luminespib; first compound 2.53 µM),relative viability (Salubrinal + Luminespib; first compound 8 µM),relative viability ([1]; first compound 0.04 µM),relative viability ([1]; first compound 0.1265 µM),relative viability ([1]; first compound 0.4 µM),relative viability ([1]; first compound 1.265 µM),relative viability ([1]; first compound 4 µM),relative viability ([2]; first compound 0.04 µM),relative viability ([2]; first compound 0.1265 µM),relative viability ([2]; first compound 0.4 µM),relative viability ([2]; first compound 1.265 µM),relative viability ([2]; first compound 4 µM)
NCI-H1623,0.475,0.485,0.54,0.514,0.572,0.465,0.648,0.541,0.435,0.441,,,,,,,,,,
NCI-H1648,,,,,,,,,,,0.521,0.5,0.568,0.528,0.431,,,,,
NCI-H1703,,,,,,,,,,,,,,,,0.34,0.329,0.329,0.347,0.234
NCI-H1793,0.448,0.421,0.359,0.385,0.398,0.231,0.168,0.206,0.162,0.244,0.32,0.5,0.439,0.383,0.453,,,,,
NCI-H1944,0.233,0.216,0.205,0.226,0.246,0.792,1.04,0.807,0.733,0.831,0.377,0.428,0.436,0.418,0.422,,,,,
NCI-H2170,0.764,0.526,0.71,0.57,0.534,0.854,0.686,0.642,0.643,0.714,0.473,0.442,0.433,0.448,0.461,,,,,
NCI-H2228,0.568,0.485,0.508,0.528,0.431,0.105,0.0961,0.154,0.108,0.174,,,,,,1.11,0.992,1.16,1.13,0.907
NCI-H2342,0.304,0.278,0.305,0.298,0.291,0.779,0.662,0.714,0.601,0.799,0.688,0.73,0.799,0.737,0.72,,,,,
SK-MES-1,0.428,0.32,0.408,0.371,0.271,0.86,0.932,0.861,0.613,0.364,0.36,0.462,0.421,0.445,0.398,,,,,
SW 900,1.09,,0.66,0.584,0.497,0.173,,0.175,0.189,0.207,,0.43,0.448,0.354,0.458,,,,,
